Results reported in PMC9814901, “One-pot synthesis of cyclic-aminotropiminium carboxylate derivatives with DNA binding and anticancer properties” (Communications Chemistry, 2022).

Key:
human genomic DNA = experiment: Microscale thermophoresis (MST) binding of cATC derivatives to human genomic DNA; settings: cATC derivative 20 µM, human genomic DNA 40 fM to 75 pM
Excerpt: Further, we examined the effect of cATC derivatives (6a/6e/6j/6n) on the ct-DNA duplex structure by circular dichroism (CD) studies. We recorded the CD spectra of ct-DNA with the increasing concentration of cATC derivatives (SM, Fig. S24). […] Next, we examined the binding site of cATC derivative (ligand) at the DNA duplex structure by using AutoDock-Vina, a well-reported computational docking program. We performed docking of cATC derivatives (6a/6d/6k) crystal structure (ligand) with dodecamer DNA duplex crystal structure (PDB ID-1BNA) as the receptor. Our docking results strongly support the non-covalent interaction of cATC derivatives (6a/6d/6k) at the DNA-minor groove with the binding affinity ~7.0 Kcal/mole, mostly hydrophobic interactions (SM, Figs. S25–7, Table S8). […]
DNA was isolated from 10 × 10^6 HeLa cells by QIAmp DNA mini Kit (Qiagen, Germany). cATC derivatives (6e, 6j, and 6n dissolved in a mixture of 1X PBS containing 1% DMSO) and DNA ranging from a concentration of 40 fM to 75pM (resuspended in 1X TE with 0.05% Tween-20), was used for analyzing the interaction of cATC derivatives with DNA. […] 15 µl of the above mixture was loaded in capillaries and binding affinity was measured using the NanoTemper instrument followed by analysis through NanoTemper analysis 1.2.231 software.

HeLa cells = experiment: Confocal microscopy localization in HeLa cells; assay type: cell-based; settings: IC50 concentrations, 12-18 h
Procedure: Herein we have shown that cATC fluorescent derivatives bind with ct-DNA in the non-intercalating mode. Thus we assumed that cATC derivatives might bind to the DNA, localizing within the nucleus and affecting the cell division. We studied the localization of fluorescent signals in HeLa cells using IC50 concentrations of compounds (6e, 6j, and 6n) at different time points using a confocal microscope. For all the compounds initially (at 12 h), the signal was present in the cytoplasm and the nucleus (Fig. 6A–C). With increasing time, the signal became more intense in the nucleus (Fig. 6A–D).
HeLa cells (60,000) were grown onto a coverslip (Coverglass for cell Growth™, Fisherbrand, USA) in a 24-well plate. […] Thereafter, cells were fixed in 4% paraformaldehyde (Himedia), washed with ice-cold 1X PBS, permeabilized with 0.25% Triton X-100 (Sigma), and washed with 0.1% PBST. The cell was counter stained with 49,6-diamidino-2-phenylindole, dihydrochloride (DAPI, Invitrogen) and mounted using one drop of ProLong® Gold antifade reagent (Invitrogen) on a slide. Images were acquired by fluorescence microscope (Leica SP8 TCS) and analyzed using ImageJ (NIH).

[1] = test system: p38-p53 pathway and EMT markers in HeLa cells; experiment: Western blot of p38-p53 pathway and EMT markers; assay type: cell-based
Procedure: In order to figure out the mechanism of apoptosis induction, we analyzed the effect of different concentrations of 6e (0 μM, 4 μM, 9 μM, 14 μM and 18 μM), 6j (0 μM, 5 μM, 10 μM, 15 μM and 19 μM), and 6n (0 μM, 5 μM, 10 μM, 15 μM and 19 μM) compounds on p38-p53 pathway.
Cell lysates were prepared from HeLa treated with compounds 6e, 6j, and 6n in ice-cold RIPA buffer (Thermo Scientific, USA), and supplemented with protease and phosphatase inhibitor cocktail (Thermo Scientific, USA). Protein quantification of cell lysates was done using BCA reagent (Thermo Scientific). 20 µg of protein samples were separated on a 12% SDS-PAGE and subsequently transferred onto a PVDF membrane (Merck Millipore, USA). The blots were probed with specific antibodies for p38 (1:1000, #9212, Cell Signaling Technology, USA), phospho-p38 (1:1000, #9211; Cell Signaling technology), p53 (1:1000, #9282, Cell signalling technology), phospho-p53 (1:1000, #9284, Cell Signaling technology), snail (1:1000, #C15D3, Cell Signaling technology), slug (1:1000, #C19G7, Cell signalling technology) and GAPDH (1:5000, #ABM22C5, Abgenex, India) followed by incubation with HRP tagged anti-mouse IgG secondary antibody (Abgenex) for GAPDH and HRP tagged anti-rabbit IgG secondary antibody (Abgenex) for p38, phospho-p38, p53, phospho-p53, snail and slug. The chemiluminescence signal was detected in ChemiDoc XRS + (Bio-Rad) using SuperSignal™ West Femto reagent (Thermo Scientific).

4T1 cell derived tumor = experiment: 4T1 xenograft tumor growth in Balb/C mice; assay type: in vivo, mouse; settings: Balb/C 4T1 model, 6e 1 mg/kg/day, 6j 0.5 mg/kg/day, 6n 1 mg/kg/day
Procedure: To understand the potential and tolerance of 6e, 6j, and 6n compounds using in vivo system, we used Balb/C 4T1 cell line xenograft mouse model. Treatment was initiated after tumors reached a mean value of 20.47 mm^3 (day 8) and treated with 6e, 6j, and 6n at a dosage of 1 mg/kg/day, 0.5 mg/kg/day, and 1 mg/kg/day, respectively. Body weight and activity were observed three days post injection, every alternative day. […] Based on this study, we deduced that these compounds are well tolerated by the animals.
All animal experiments were approved by the Institutional Animal Ethics Committee, NISER, India (AH-214). Female BALB/c mice (aged 6–8 weeks, 18–20 g) were injected with 1 × 10^6 4T1 breast cancer cells into the mammary fat pad. After one week, 6j (0.5 mg/kg), 6e (1 mg/kg) and 6n (1 mg/kg) compounds were injected intraperitoneally in mice at the interval of every 24 h for a period of 21 days. Thereafter, the mice were sacrificed and the xenograft tumors were removed, weighed, and photographed.

Structure (SMILES): Cc1cccc(C2C(C(=O)[O-])N(CCc3ccccc3)c3ccccc[c+]3N2Cc2ccccc2)c1 (centres unmarked) [Compound 6e]
- Hill's coefficient (nH) (human genomic DNA): 1.6
- cellular localization of fluorescent signal (HeLa cells): penetrate the cell membrane and localize to the nucleus
- E-Cadherin expression ([1]; dose-dependent, 0-19 µM): increased expression of E-Cadherin
- expression of EMT markers (N-Cadherin, Snail, Slug) ([1]; dose-dependent, 0-19 µM): decreased expression of EMT markers
- phospho-P53 and phospho-P38 levels ([1]; increasing concentration 0-18 μM (6e), 0-19 μM (6j, 6n)): gradual increase in phospho-P53 and phospho-P38 levels
- tumor growth / tumor size (4T1 cell derived tumor; day 8 till day 20): inhibit tumor growth in vivo
- behavior/activity versus control group (4T1 cell derived tumor; intraperitoneal): normal behavior/activity
- body weight versus control group (4T1 cell derived tumor; intraperitoneal): no significant difference in body weight
